Among the data in publication PMC10824666 (Nature Cancer, 2023) are remaining activity values, retold here.

Like-named read-outs stand apart in the source and are kept apart here.

Holding throughout (assay): biochemical
Parameters in all cases: Eurofins DiscoverX kinase panel, competitive binding assay at 1 uM, percent of DMSO control
Details in all cases: competitive binding, percent of DMSO control

The target in one assay is INSR (Homo sapiens, UniProt P06213). In short, it runs like this:
(§1)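 Competitive binding assay across a 96-kinase panel with KIF18A compounds at 1 µM; values given as percentage of control (POC), single experiment.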

Another assay deals with T1, IRAK 4 (Homo sapiens, UniProt Q9NWZ3).
T1 construct: gene IRAK4
T1 sequence (Q9NWZ3 1-460): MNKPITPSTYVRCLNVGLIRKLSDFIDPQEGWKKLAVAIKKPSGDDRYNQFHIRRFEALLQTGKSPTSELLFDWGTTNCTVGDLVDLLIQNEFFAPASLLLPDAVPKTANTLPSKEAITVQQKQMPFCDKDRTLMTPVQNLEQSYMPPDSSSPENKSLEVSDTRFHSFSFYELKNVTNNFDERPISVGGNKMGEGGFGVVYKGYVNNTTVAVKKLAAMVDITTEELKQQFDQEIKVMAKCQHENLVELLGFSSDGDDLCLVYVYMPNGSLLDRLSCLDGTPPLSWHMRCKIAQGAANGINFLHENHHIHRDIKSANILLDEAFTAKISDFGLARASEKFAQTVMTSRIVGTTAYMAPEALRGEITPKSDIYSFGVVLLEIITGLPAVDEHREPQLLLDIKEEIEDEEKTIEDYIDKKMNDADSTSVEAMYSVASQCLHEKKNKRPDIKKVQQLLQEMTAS
In outline: as §1

The target in another assay is bRAF (Homo sapiens, UniProt P15056). In short, it runs like this: as §1
In a further assay the target is NEK6 (Homo sapiens, UniProt Q9HC98). In outline:
as §1

The target of the next assay is DAPK1 (Homo sapiens, UniProt P53355). In outline: as §1
The target of a further assay is LCK (Homo sapiens, UniProt P06239). In outline: as §1
In a further assay the target is T2, Aurora 2 (Homo sapiens, UniProt O14965).
T2 construct: gene AURKA
T2 sequence (O14965 1-403): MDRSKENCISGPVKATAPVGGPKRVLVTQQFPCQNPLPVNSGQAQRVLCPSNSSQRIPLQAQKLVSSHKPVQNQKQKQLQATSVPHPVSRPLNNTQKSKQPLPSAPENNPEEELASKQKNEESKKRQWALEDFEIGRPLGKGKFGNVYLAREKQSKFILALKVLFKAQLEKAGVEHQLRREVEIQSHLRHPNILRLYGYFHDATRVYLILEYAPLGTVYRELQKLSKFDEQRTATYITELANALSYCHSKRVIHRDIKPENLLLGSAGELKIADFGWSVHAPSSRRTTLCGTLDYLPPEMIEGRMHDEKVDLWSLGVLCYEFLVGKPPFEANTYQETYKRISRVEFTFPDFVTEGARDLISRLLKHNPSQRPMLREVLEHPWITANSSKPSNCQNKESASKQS
In short, it runs like this:
as §1

The next assay concerns the target EPHA2 (Homo sapiens, UniProt P29317). In outline: as §1
The mark [1] stands for this setting: read-out: Kinome Profiling performed by Eurofins DiscoverX / AM-0277, 1.0 µM / POC.
[2] abbreviates: read-out: Kinome Profiling performed by Eurofins DiscoverX / AM-1882, 1.0 µM / POC.
The mark [3] stands for this setting: read-out: Kinome Profiling performed by Eurofins DiscoverX / AM-5308, 1.0 µM / POC.

Sequence of EPHA2 (P29317 whole entry): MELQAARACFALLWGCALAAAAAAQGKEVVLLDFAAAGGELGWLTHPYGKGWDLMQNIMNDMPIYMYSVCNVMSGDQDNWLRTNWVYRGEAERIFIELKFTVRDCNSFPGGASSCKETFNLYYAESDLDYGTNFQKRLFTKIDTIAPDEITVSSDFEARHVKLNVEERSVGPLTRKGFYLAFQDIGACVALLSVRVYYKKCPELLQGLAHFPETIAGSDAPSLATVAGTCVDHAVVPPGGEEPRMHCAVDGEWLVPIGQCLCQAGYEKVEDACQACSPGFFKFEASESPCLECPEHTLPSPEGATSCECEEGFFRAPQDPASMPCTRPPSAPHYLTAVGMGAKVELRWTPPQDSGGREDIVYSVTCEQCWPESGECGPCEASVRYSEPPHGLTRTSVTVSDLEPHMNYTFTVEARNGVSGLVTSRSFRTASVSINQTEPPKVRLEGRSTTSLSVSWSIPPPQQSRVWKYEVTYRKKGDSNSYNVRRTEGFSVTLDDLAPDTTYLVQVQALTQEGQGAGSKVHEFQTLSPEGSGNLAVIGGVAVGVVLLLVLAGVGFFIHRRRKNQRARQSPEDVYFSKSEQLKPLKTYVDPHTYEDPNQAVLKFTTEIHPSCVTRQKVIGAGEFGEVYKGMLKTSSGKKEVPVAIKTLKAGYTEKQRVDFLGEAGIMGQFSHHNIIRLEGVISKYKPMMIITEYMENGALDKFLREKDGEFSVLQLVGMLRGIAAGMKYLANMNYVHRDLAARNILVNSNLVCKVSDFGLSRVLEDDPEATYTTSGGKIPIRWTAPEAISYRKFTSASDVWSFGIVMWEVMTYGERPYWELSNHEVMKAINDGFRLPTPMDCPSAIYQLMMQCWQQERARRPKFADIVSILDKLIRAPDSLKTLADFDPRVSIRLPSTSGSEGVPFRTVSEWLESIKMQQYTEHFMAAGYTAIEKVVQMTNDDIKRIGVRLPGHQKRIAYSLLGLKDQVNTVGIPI
Sequence of NEK6 (Q9HC98 whole entry): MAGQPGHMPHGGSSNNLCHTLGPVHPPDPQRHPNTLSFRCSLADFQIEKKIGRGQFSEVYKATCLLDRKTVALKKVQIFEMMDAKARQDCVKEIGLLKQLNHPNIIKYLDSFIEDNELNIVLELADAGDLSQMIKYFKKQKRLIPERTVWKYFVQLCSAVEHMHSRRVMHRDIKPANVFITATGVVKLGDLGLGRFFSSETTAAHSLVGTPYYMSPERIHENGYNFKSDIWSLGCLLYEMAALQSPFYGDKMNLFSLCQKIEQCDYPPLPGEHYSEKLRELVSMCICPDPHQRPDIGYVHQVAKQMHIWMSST
Sequence of bRAF (P15056 whole entry): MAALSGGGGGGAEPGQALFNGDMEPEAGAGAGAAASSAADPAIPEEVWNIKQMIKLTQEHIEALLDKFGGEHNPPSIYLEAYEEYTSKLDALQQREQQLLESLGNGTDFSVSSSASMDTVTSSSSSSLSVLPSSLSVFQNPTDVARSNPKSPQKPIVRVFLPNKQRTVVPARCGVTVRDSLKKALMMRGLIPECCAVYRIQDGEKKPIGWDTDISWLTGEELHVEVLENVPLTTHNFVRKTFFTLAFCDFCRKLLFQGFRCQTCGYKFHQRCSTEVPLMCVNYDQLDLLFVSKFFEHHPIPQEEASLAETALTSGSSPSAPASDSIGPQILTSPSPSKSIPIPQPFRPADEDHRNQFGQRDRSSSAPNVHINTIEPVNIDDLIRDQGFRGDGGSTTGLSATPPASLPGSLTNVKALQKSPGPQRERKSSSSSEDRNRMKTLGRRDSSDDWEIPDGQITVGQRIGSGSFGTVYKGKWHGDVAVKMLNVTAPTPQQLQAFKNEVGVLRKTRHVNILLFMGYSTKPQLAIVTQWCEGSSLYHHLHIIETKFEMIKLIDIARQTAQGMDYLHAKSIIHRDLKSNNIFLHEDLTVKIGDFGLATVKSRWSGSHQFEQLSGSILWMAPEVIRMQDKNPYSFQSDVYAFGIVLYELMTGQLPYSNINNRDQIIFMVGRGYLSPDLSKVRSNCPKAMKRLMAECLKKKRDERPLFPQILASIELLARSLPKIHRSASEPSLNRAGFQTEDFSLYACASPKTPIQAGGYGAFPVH
Sequence of DAPK1 (P53355 whole entry): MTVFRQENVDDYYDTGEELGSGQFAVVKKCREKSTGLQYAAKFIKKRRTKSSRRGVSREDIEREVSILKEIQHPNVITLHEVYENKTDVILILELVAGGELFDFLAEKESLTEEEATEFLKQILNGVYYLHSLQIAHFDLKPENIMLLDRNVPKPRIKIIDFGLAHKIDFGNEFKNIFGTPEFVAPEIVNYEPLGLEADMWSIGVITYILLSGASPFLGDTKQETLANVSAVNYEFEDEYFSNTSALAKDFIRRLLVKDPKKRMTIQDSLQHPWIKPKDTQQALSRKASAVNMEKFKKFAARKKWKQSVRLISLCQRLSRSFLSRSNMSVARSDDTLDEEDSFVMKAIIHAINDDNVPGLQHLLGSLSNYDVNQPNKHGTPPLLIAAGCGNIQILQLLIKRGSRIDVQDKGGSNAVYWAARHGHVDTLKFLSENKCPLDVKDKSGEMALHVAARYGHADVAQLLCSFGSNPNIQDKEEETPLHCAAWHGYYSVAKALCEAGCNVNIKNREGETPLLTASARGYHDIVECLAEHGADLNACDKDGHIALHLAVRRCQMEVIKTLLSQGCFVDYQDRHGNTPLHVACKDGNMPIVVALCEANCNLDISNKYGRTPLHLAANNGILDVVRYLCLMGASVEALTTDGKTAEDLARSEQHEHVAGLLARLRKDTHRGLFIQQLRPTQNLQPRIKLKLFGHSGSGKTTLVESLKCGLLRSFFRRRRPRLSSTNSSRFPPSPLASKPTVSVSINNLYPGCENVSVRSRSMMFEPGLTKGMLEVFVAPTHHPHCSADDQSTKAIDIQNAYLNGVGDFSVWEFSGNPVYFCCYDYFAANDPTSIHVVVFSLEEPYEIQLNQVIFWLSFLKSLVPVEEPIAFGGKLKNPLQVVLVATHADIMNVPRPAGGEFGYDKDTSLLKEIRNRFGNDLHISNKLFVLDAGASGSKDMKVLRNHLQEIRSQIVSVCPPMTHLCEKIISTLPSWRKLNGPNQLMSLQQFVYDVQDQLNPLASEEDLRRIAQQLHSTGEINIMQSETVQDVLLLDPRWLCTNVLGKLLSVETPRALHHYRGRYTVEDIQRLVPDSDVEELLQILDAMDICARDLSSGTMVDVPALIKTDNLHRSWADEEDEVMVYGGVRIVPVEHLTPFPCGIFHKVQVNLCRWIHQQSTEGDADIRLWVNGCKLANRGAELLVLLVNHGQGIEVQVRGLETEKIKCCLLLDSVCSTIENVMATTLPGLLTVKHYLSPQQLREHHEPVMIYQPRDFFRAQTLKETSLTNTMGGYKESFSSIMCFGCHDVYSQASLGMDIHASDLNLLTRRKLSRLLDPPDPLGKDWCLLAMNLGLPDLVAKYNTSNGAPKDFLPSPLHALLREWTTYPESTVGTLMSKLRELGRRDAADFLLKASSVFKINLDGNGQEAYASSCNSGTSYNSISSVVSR
Sequence of INSR (P06213 whole entry): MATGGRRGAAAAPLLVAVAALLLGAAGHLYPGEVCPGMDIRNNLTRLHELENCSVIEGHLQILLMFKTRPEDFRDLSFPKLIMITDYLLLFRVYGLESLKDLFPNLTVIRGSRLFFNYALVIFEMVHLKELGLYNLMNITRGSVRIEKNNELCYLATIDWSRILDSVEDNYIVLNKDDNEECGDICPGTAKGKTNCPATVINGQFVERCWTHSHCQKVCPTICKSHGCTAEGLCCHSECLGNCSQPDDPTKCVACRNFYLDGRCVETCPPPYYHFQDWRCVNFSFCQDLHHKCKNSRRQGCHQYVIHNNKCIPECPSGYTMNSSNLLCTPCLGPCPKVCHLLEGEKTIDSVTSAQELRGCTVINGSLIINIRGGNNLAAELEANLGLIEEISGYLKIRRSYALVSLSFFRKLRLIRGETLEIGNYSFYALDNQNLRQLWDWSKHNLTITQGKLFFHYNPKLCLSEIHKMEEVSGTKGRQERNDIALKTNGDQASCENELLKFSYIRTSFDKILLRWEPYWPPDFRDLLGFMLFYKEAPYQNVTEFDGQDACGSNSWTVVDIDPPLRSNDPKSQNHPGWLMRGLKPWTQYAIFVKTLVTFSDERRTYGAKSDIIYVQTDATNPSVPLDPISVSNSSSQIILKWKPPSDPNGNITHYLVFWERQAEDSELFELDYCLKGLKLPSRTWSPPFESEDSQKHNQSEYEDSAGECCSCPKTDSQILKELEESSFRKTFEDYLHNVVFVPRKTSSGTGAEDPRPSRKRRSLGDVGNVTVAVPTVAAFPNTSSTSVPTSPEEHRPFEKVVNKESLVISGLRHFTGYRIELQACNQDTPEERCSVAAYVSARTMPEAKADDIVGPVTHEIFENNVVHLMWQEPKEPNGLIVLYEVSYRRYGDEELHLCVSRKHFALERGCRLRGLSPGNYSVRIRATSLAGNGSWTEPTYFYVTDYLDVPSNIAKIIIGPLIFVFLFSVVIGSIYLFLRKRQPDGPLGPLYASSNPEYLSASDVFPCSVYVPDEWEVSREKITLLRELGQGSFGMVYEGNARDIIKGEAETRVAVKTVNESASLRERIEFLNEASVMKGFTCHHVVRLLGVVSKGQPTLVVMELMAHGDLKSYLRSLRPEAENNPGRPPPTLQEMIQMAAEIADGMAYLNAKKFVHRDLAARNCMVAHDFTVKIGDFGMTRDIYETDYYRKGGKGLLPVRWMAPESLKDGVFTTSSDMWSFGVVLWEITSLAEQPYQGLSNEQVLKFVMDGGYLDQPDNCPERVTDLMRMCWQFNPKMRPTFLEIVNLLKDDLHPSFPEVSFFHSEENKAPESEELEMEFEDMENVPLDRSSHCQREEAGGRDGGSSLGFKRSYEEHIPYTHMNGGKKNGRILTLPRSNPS

`CC(C)(CO)Nc1ccc(C(=O)Nc2cccc(S(=O)(=O)C3CCCC3)c2)c(N2CCC3(CC2)CC3)n1` [AM-0277]: the remaining activity at 1 µM is 100% at INSR (setting [1]); 100% on IRAK 4 (setting [1]); 100% at bRAF (setting [1]); 94% on NEK6 (setting [1]); 100% on DAPK1 (setting [1]); 92% on LCK (setting [1]). Further, the remaining activity at 1 µM at Aurora 2 (setting [1]) was found to be 100%; on EPHA2 (setting [1]) it was 80%.

As to `CC(C)(C)NS(=O)(=O)c1cccc(NC(=O)c2ccc(S(=O)(=O)NC(C)(C)C)cc2N2CCC3(CC2)CC3)c1` [AM-1882], the remaining activity at 1 µM was determined as 100% on INSR (setting [2]); 80% on IRAK 4 (setting [2]); 94.5% at bRAF (setting [2]); 100% on NEK6 (setting [2]); 87% at DAPK1 (setting [2]); 95% at LCK (setting [2]). Moreover, the remaining activity at 1 µM on Aurora 2 (setting [2]) came out at 100%; at EPHA2 (setting [2]), 99.5%.

With `C[C@@H]1CN(c2cccc(NC(=O)c3ccc(NS(=O)(=O)CCO)cc3N3CCC4(CC3)CC4)n2)CCO1` [AM-5308], the remaining activity at 1 µM on INSR (setting [3]) was determined as 100%; on IRAK 4 (setting [3]) it was 95.5%; on bRAF (setting [3]), 92.5%; at NEK6 (setting [3]), 95%; on DAPK1 (setting [3]), 89.5%; on LCK (setting [3]), 92%. The remaining activity at 1 µM is 100% on Aurora 2 (setting [3]) and 92.5% at EPHA2 (setting [3]).
